Converted amounts (≈) assume the structure as drawn. Like-named read-outs stand apart in the source and are kept apart here.
What was measured:
[1] = test system: S. aureus (ATCC 43300) (MRSA); assay: Antibacterial assay against multi-drug resistant strains (MIC/MBC); assay type: cell-based, Staphylococcus aureus; settings: Staphylococcus aureus, S. aureus ATCC 43300 (MRSA); for MBC: read-out: MBC; for MIC: read-out: MIC
DHFR E. Coli = DHFR E. Coli (Escherichia coli, UniProt P0ABQ4); assay: DHFR inhibitory assay; assay type: biochemical; settings: read-out: IC50 DHFR E. Coli
S. aureus = assay: MIC/MBC assay, twofold serial dilution; assay type: cell-based, Staphylococcus aureus
Experimental: (§1) The results of this in vitro assay test are consistent with the findings of the antimicrobial sensitivity test. […] It has lower antimicrobial activity than ciprofloxacin against all pathogens tested.
(§2) The MBC differs from the MIC. […]
(§3) 4.2.2. Minimum inhibitory concentration assay
(§4) In 96-well microtiter plates and […] of fresh bacterial culture of a single McFarland unit overnight, a double serial dilution of each compound […] in sterile standard saline were prepared to every single source well. Ciprofloxacin antibiotic (5 mg / mL - 1) and normal saline were included as standard reference in each assay. The plates were incubated at 37 0C overnight. As an indicator of bacterial growth, […] of p-iodonitrotetrazolium violet (INT) was added to each well and incubated at 37 0C for 30 […]
(§5) min. MIC values are recorded as the lowest concentration of the extract that completely inhibited bacterial growth that is clear well. The colorless tetrazolidium salt acts as an electron accepter and is reduced to a red colored formazan product by biological activity organisms. Where bacterial growth was inhibited, the solution in the well remained clear after incubation with INT. […]

B. subtilis = assay: MIC/MBC assay, twofold serial dilution; assay type: cell-based, Bacillus subtilis; settings: for MIC: read-out: MIC
Experimental: as §1, §2, §3, §4, §5

E. coli = assay: MIC/MBC assay, twofold serial dilution; assay type: cell-based, Escherichia coli; settings: Escherichia coli; for MBC: read-out: MBC; for MIC: read-out: MIC
Experimental: as §1, §2, §3, §4, §5

C. albicans = assay: Antifungal assay (MIC/MFC), twofold serial dilution; settings: Candida albicans
[2] = test system: P. aeruginosa (ATCC BAA-2111); assay: Antibacterial assay against multi-drug resistant strains (MIC/MBC); assay type: cell-based, Pseudomonas aeruginosa; settings: Pseudomonas aeruginosa; for MBC: ATCCBAA2111; for MIC: ATCCBAA2111, read-out: MIC
[3] = Cell viability assay (MTT); assay type: cell-based; settings: human, MCF-10A cells (normal mammary gland epithelial cell line), 4-day incubation
Experimental: The vitality of the investigated compounds was assessed using the MCF-10A cell line, which is a normal human mammary gland epithelial cell line. Following a 4-day incubation period on MCF-10A cells with a concentration of 50 µM for each compound being studied, the viability of the cells was assessed using the MTT test ([Hisham et al., 2022]; [Mahmoud et al., 2022]).
4.2.3. Cell Viability assay
MTT assay was carried out to study the effect of compounds on mammary epithelial cells (MCF-10A). The medium in which cells were propagated contained Dulbecco's modified Eagle's medium (DMEM)/ Ham's F-12 medium (1:1) supplemented with epidermal growth factor (20 ng/mL), hydrocortisone (500 ng/mL), insulin (10 μg/mL), 2 mM glutamine and 10% fetal calf serum. After every 2-3 days, the cells were passaged using trypsin ethylenediamine tetra acetic acid (EDTA). The cells were seeded at a density of 10^4 cells mL-1 in flat-bottomed culture plates containing 96 wells each. After 24 h, medium was removed from the plates and the compounds in (in 0.1% DMSO) were added (in 200 μL medium to yield a final concentration of 0.1% v/v) to the wells of plates. A single compound was designated with four wells followed by incubation of plates for 96h at 37°C. After incubation, medium was removed completely from the plates followed by addition of MTT (0.4 mg/mL in medium) to each well and subsequent incubation of plates for 3h. MTT (along with the medium) was removed and DMSO (150μL) was added to each well of the culture plates, followed by vortexing and subsequent measurement of absorbance (at 540 nm) using microplate reader. The data are shown as percentage inhibition of proliferation in comparison with controls

P. aeruginosa = assay: MIC/MBC assay, twofold serial dilution; assay type: cell-based, Pseudomonas aeruginosa; settings: for MIC: read-out: MIC
Experimental: as §1, §2, §3, §4, §5

E. coli (ATCC BAA-196) = assay: Antibacterial assay against multi-drug resistant strains (MIC/MBC); assay type: cell-based, Escherichia coli; settings: Escherichia coli; for MBC: ATCCBAA196; for MIC: ATCCBAA196, read-out: MIC
Gram-positive bacteria = assay: MBC assay, Gram-positive bacteria together; assay type: cell-based; settings: Gram-positive bacteria (B. subtilis, S. aureus)
Excerpt: The MBC differs from the MIC.

E. coli DNA gyrase = E. coli DNA gyrase (Escherichia coli, UniProt P0AES6); assay: E. coli DNA gyrase supercoiling inhibitory assay; assay type: biochemical
Experimental: The fluorescence was measured with a microplate reader (BioTek Synergy H4,
NaCl and 50 mM MgCl2) was added to terminate the enzymatic reaction. After
Initial screening was done at 100 or 10 μM concentration

A. flavus = assay: Antifungal assay (MIC/MFC), twofold serial dilution; settings: for MIC: A. flavus
[4] = Staphylococcus aureus, read-out: MBC
[5] = Staphylococcus aureus, read-out: MIC
[6] = Bacillus subtilis, read-out: MBC
[7] = Pseudomonas aeruginosa, read-out: MBC

Chain of DHFR E. Coli (P0ABQ4 whole entry): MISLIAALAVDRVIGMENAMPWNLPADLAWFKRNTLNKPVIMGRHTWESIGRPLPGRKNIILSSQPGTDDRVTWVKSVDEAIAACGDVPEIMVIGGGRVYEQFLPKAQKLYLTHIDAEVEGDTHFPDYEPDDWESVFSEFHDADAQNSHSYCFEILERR

SMILES | MBC [1] [µM] | MIC [1] [µM] | MIC (S. aureus) [µM] | MBC (S. aureus; [4]) [µM] | MIC (S. aureus; [5]) [µM] | MBC (B. subtilis; [6]) [µM] | MIC (B. subtilis; Bacillus subtilis) [µM] | MBC (E. coli) [µM] | MIC (E. coli) [µM] | MFC (C. albicans) [µM] | MIC (C. albicans) [µM] | MBC [2] [µM] | MIC [2] [µM] | viability at 96 h, 50 µM [3] [%] | MBC (P. aeruginosa; [7]) [µM] | MIC (P. aeruginosa; Pseudomonas aeruginosa) [µM] | MBC (E. coli (ATCC BAA-196)) [µM] | MIC (E. coli (ATCC BAA-196)) [µM] | MBC (Gram-positive bacteria) [µM] | MIC (A. flavus) [µM] | other results
Cc1ccc2c(c1)/C(=N/NC(=O)c1cc(Cc3ccc(O)c(C(=O)N/N=C4\C(=O)Nc5ccc(C)cc54)c3)ccc1O)C(=O)N2 [Compound 6j] | 5.9 ± 0.25 (≈ 3.56 µg/mL) | 3.2 ± 0.15 (≈ 1.93 µg/mL) | 0.025 ± 0.002 (≈ 0.0151 µg/mL) | 0.04 (≈ 0.0241 µg/mL) | 0.025 (≈ 0.0151 µg/mL) | 0.047 (≈ 0.0283 µg/mL) | 0.031 ± 0.002 (≈ 0.0187 µg/mL) | 0.081 ± 0.006 (≈ 0.0488 µg/mL) | 0.062 ± 0.004 (≈ 0.0374 µg/mL) | 41.5 ± 3 (≈ 25 µg/mL) | 20.7 ± 1 (≈ 12.5 µg/mL) | 7.8 ± 0.3 (≈ 4.7 µg/mL) | 5.6 ± 0.25 (≈ 3.37 µg/mL) | 92 | 0.08 (≈ 0.0482 µg/mL) | 0.061 ± 0.005 (≈ 0.0368 µg/mL) | 6.1 ± 0.25 (≈ 3.68 µg/mL) | 3.9 ± 0.15 (≈ 2.35 µg/mL) | 0.028 to 0.058 (≈ 0.0169 to 0.035 µg/mL) | 16.90 ± 1 (≈ 10.2 µg/mL) | IC50 (DHFR E. Coli): 5100 ± 200 nM; MBC (S. aureus): 0.04 ± 0.002 µM (≈ 0.0241 µg/mL); MBC (B. subtilis): 0.047 ± 0.002 µM (≈ 0.0283 µg/mL); MBC (P. aeruginosa): 0.08 ± 0.006 µM (≈ 0.0482 µg/mL); IC50 (E. coli DNA gyrase): 117 ± 8 nM; MFC (A. flavus; Aspergillus flavus): 33.9 ± 2 µM (≈ 20.4 µg/mL); MIC (A. flavus; Aspergillus flavus): 14.5 to 19.5 µM (≈ 8.74 to 11.8 µg/mL)
O=C1Nc2ccc(Br)cc2/C1=N/NC(=O)c1cc(Cc2cc(Cl)c(O)c(C(=O)N/N=C3\C(=O)Nc4ccc(Br)cc43)c2)cc(Cl)c1O [Compound 6c] | 7.1 ± 0.5 (≈ 5.69 µg/mL) | 4.7 ± 0.2 (≈ 3.77 µg/mL) | 0.029 ± 0.002 (≈ 0.0232 µg/mL) | 0.045 ± 0.002 (≈ 0.0361 µg/mL) | 0.029 (≈ 0.0232 µg/mL) | 0.051 ± 0.003 (≈ 0.0409 µg/mL) | 0.033 ± 0.002 (≈ 0.0264 µg/mL) | 0.088 ± 0.006 (≈ 0.0705 µg/mL) | 0.066 ± 0.004 (≈ 0.0529 µg/mL) | 44.8 ± 3 (≈ 35.9 µg/mL) | 21.3 ± 1 (≈ 17.1 µg/mL) | 9.2 ± 0.6 (≈ 7.37 µg/mL) | 6.85 ± 0.5 (≈ 5.49 µg/mL) | 91 | 0.085 ± 0.006 (≈ 0.0681 µg/mL) | 0.065 ± 0.005 (≈ 0.0521 µg/mL) | 8.2 ± 0.6 (≈ 6.57 µg/mL) | 5.3 ± 0.2 (≈ 4.25 µg/mL) | 0.028 to 0.058 (≈ 0.0224 to 0.0465 µg/mL) | 18.20 ± 1 (≈ 14.6 µg/mL) | MFC (A. flavus; Aspergillus flavus): 35.9 ± 2 µM (≈ 28.8 µg/mL); MIC (A. flavus; Aspergillus flavus): 14.5 to 19.5 µM (≈ 11.6 to 15.6 µg/mL)
